Reference: US7834006B2, “Fused polycyclic compounds” (Ajinomoto Co., Inc., priority 2004, dated 2010)

Test system: adipose cells of rats
Assay: Evaluation of the sugar transporting capacity (2-[14C(U)]-deoxy-D-glucose incorporation)
Type: cell-based
Conditions: insulin 100 nM; rat adipose cells; 2-deoxy-D-glucose incorporation
Method: Preparation of Adipose Cells of Rats:
After the decapitation and venesection of 6 male Wistar rats (body weight: 150 to 200 g), an incision was made in the abdomen of each rat to extract 6 g in total of epididymal adipose tissues. The tissues were finely cut into 2 mm×2 mm pieces in 6 ml of KRH (Krebs-Ringer Hepes, composition: 130 mM of sodium chloride, 4.7 mM of potassium chloride, 1.2 mM of potassium dihydrogenphosphate, 1.2 mM of magnesium sulfate, 1 mM of calcium chloride and 25 mM of Hepes, pH=7.6) containing 5% of BSA (bovine serum albumin). 24 mg of collagenase (type I) was added thereto and the digestion treatment was conducted for about 40 minutes to obtain about 6 ml of isolated adipose cells. The collagenase was removed by the buffer exchange. 2% BSA/KRH solution was added to the residue for the re-suspension to obtain 45 ml of an adipose cell suspension.
Evaluation of the Sugar Transporting Capacity: […]
The sugar transporting capacity was evaluated by measuring the quantity of 2-[^14C(U)]-deoxy-D-glucose incorporated per a unit time. […] The quantity of 2-[^14C(U)]-deoxy-D-glucose contained in the adipose cell layer was determined with a liquid scintillation counter to determine the quantity of the incorporated sugar.

**Q.** Which “effect of increasing the sugar-transporting capacity versus insulin-free control group” value does the source give for insulin here?
**A.** The value was “about 7 times”.
